Values quoted from earlier work as cited in US20130053422A1, “Antimicrobial Compositions” (priority 2010, published 2013).

Legend:
Settings in all cases: after 5 to 60 minutes
Herpes virus type 1 = test system: Herpes virus type 1
Vaccinia virus = test system: Vaccinia virus
bovine parainfluenzae 3 = test system: bovine parainfluenzae 3

CCCCCCCCCCCC(=O)N[C@@H](CCCN=C(N)N)C(=O)OCC [LAE, lauric arginate]
nearly complete reduction: reduction of Herpes virus type 1 (Herpes virus type 1) | reduction of Vaccinia virus (Vaccinia virus) | reduction of bovine parainfluenzae 3 (bovine parainfluenzae 3)
